What follows are compounds tested on Hepatitis C replicon (assay: HCV replicon assay (NPT ELISA readout) in Huh-7 replicon-containing cells). Conditions: Hepatitis C virus, 72 h; HCV replicon in Huh-7 cells, three days incubation.
Type: cell-based, Hepatitis C virus
Outline: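 Replication is measured as neomycin phosphotransferase level by captured ELISA after three days of compound exposure (typically 10 to 0.03 μM, 6 concentrations) at 37 °C. Cells are Huh-7 harbouring an HCV replicon with neo gene and NS3-NS5B; interferon alpha is the positive control.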

Q: Which EC50 does the source give for `COc1ccc2c(O[C@@H]3C[C@H]4C(=O)N[C@]5(C(=O)NS(=O)(=O)C6CC6)C[C@H]5/C=C\CCCCC[C@H](CC(=O)N5CCCC5C(F)(F)F)C(=O)N4C3)cc(-c3ccccn3)nc2c1Cl` (stereo partly drawn) [Compound 95, (2R,6R,14aR,16aS,Z)-2-(8-chloro-7-methoxy-2-(pyridin-2-yl)quinolin-4-yloxy)-N-(cyclopropylsulfonyl)-5,16-dioxo-6-(2-oxo-2-(2-(trifluoromethyl)pyrrolidin-1-yl)ethyl)-1,2,3,5,6,7,8,9,10,11, 13a,14,14a,15,16,16a-hexadecahydrocyclopropa [e]pyrrolo[1,2-a][1,4] diazacyclopentadecine-14a-carboxamide] here?
A: < 1000 nM

Q: With `COc1ccc2nc(-c3ccccn3)cc(C(=O)N[C@@H]3C[C@H]4C(=O)N[C@]5(C(=O)NS(=O)(=O)C6CC6)C[C@H]5/C=C\CCCCC[C@H](CC(=O)N5CCCCC5)C(=O)N4C3)c2c1` [Compound 96, (2R,6R,14aR,16aS,Z)-N-(cyclopropylsulfonyl)-2-(6-methoxy-2-(pyridin-2-yl)quinoline-4-carboxamido)-5,16-dioxo-6-(2-oxo-2-(piperidin-1-yl)ethyl)-1,2,3,5,6,7,8,9,10,11, 13a,14,14a,15,16,16a-hexadecahydrocyclopropa [e]pyrrolo[1,2-a][1,4] diazacyclopentadecine-14a-carboxamide] as the compound, how does the EC50 read?
A: < 1000 nM

Q: How did the EC50 turn out when `COc1ccc2nc(-c3ccccn3)cc(C(=O)N[C@@H]3C[C@H]4C(=O)N[C@]5(C(=O)NS(=O)(=O)C6CC6)C[C@H]5/C=C\CCCCC[C@H](CC(=O)N5CCC(F)(F)CC5)C(=O)N4C3)c2c1` [Compound 97, (2R,6R,14aR,16aS,Z)-N-(cyclopropylsulfonyl)-6-(2-(4,4-difluoropiperidin-1-yl)-2-oxoethyl)-2-(6-methoxy-2-(pyridin-2-yl)quinoline-4-carboxamido)-5,16-dioxo-1,2,3,5,6,7,8,9,10,11, 13a,14,14a,15,16,16a-hexadecahydrocyclopropa [e]pyrrolo[1,2-a][1,4] diazacyclopentadecine-14a-carboxamide] was run?
A: < 1000 nM

Q: For `COc1ccc2nc(-c3ccccn3)cc(C(=O)N[C@@H]3C[C@H]4C(=O)N[C@]5(C(=O)NS(=O)(=O)C6CC6)C[C@H]5/C=C\CCCCC[C@H](CC(=O)N5CCC(F)(F)C5)C(=O)N4C3)c2c1` [Compound 98, (2R,6R,14aR,16aS,Z)-N-(cyclopropylsulfonyl)-6-(2-(3,3-difluoropyrrolidin-1-yl)-2-oxoethyl)-2-(6-methoxy-2-(pyridin-2-yl)quinoline-4-carboxamido)-5,16-dioxo-1,2,3,5,6,7,8,9,10,11, 13a,14,14a,15,16,16a-hexadecahydrocyclopropa [e]pyrrolo[1,2-a][1,4] diazacyclopentadecine-14a-carboxamide], which EC50 is on record?
A: < 1000 nM

Q: For `COc1ccc2c(O[C@@H]3C[C@H]4C(=O)N[C@]5(C(=O)NS(=O)(=O)C6CC6)C[C@H]5/C=C\CCCCC[C@H](CC(=O)N5[C@H](C)CCC[C@@H]5C)C(=O)N4C3)cc(-c3ccccc3)nc2c1` [Compound 99, (2R,6R,14aR,16aS,Z)-N-(cyclopropylsulfonyl)-6-(2-((2R,6S)-2,6-dimethylpiperidin-1-yl)-2-oxoethyl)-2-(7-methoxy-2-phenylquinolin-4-yloxy)-5,16-dioxo-1,2,3,5,6,7,8,9,10,11, 13a,14,14a,15,16,16a-hexadecahydrocyclopropa [e]pyrrolo[1,2-a][1,4] diazacyclopentadecine-14a-carboxamide], which EC50 is on record?
A: < 1000 nM

Q: For `COc1ccc2c(O[C@@H]3C[C@H]4C(=O)N[C@]5(C(=O)NS(=O)(=O)C6CC6)C[C@H]5/C=C\CCCCC[C@H](CC(=O)N5CCCC(F)C5)C(=O)N4C3)cc(-c3ccccn3)nc2c1Cl` (stereo partly drawn) [Compound 100, (2R,6R,14aR,16aS,Z)-2-(8-chloro-7-methoxy-2-(pyridin-2-yl)quinolin-4-yloxy)-N-(cyclopropylsulfonyl)-6-(2-(3-fluoropiperidin-1-yl)-2-oxoethyl)-5,16-dioxo-1,2,3,5,6,7,8,9,10,11, 13a,14,14a,15,16,16a-hexadecahydrocyclopropa [e]pyrrolo[1,2-a][1,4] diazacyclopentadecine-14a-carboxamide], which EC50 is on record?
A: < 1000 nM

Q: With `COc1ccc2c(O[C@@H]3C[C@H]4C(=O)N[C@]5(C(=O)NS(=O)(=O)C6CC6)C[C@H]5/C=C\CCCCC[C@H](CC(=O)N5CCC(F)CC5)C(=O)N4C3)cc(-c3ccccn3)nc2c1Cl` [Compound 101, (2R,6R,14aR,16aS,Z)-2-(8-chloro-7-methoxy-2-(pyridin-2-yl)quinolin-4-yloxy)-N-(cyclopropylsulfonyl)-6-(2-(4-fluoropiperidin-1-yl)-2-oxoethyl)-5,16-dioxo-1,2,3,5,6,7,8,9,10,11, 13a,14,14a,15,16,16a-hexadecahydrocyclopropa [e]pyrrolo[1,2-a][1,4] diazacyclopentadecine-14a-carboxamide] as the compound, how does the EC50 read?
A: < 1000 nM

Q: For `COc1ccc2c(O[C@@H]3C[C@H]4C(=O)N[C@]5(C(=O)NS(=O)(=O)C6CC6)C[C@H]5/C=C\CCCCC[C@H](CC(=O)N5CC[C@H](N)C5)C(=O)N4C3)cc(-c3ccccc3)nc2c1` [Compound 102, (2R,6R,14aR,16aS, Z)-6-(2-((S)-3-aminopyrrolidin-1-yl)-2-oxoethyl)-N-(cyclopropylsulfonyl)-2-(7-methoxy-2-phenylquinolin-4-yloxy)-5,16-dioxo-1,2,3,5,6,7,8,9,10,11, 13a,14,14a,15,16,16a-hexadecahydrocyclopropa [e]pyrrolo[1,2-a][1,4] diazacyclopentadecine-14a-carboxamide], which EC50 is on record?
A: < 1000 nM

Q: How did the EC50 turn out when `COc1ccc2c(O[C@@H]3C[C@H]4C(=O)N[C@]5(C(=O)NS(=O)(=O)C6CC6)CC5/C=C\CCCCC[C@H](CC(=O)N5CC[C@@H](CNC(=O)OC(C)(C)C)C5)C(=O)N4C3)cc(-c3ccccc3)nc2c1` (stereo partly drawn) [Compound 103, tert-butyl ((3S)-1-(2-((2R,6R,14aR,16aS,Z)-14a-(cyclopropylsulfonyl-carbamoyl)-2-(7-methoxy-2-phenylquinolin-4-yloxy)-5,16-dioxo-1,2,3,5,6,7,8,9,10,11, 13a,14,14a,15,16,16a-hexadecahydrocyclopropa [e]pyrrolo[1,2-a][1,4]diazacyclopentadecin-6-yl)acetyl)pyrrolidin-3-yl)methylcarbamate] was run?
A: < 1000 nM

Q: With `COc1ccc2c(O[C@@H]3C[C@H]4C(=O)N[C@]5(C(=O)NS(=O)(=O)C6CC6)C[C@H]5/C=C\CCCCC[C@H](CC(=O)N5CC[C@@H](CN)C5)C(=O)N4C3)cc(-c3ccccc3)nc2c1` [Compound 105, (2R,6R,14aR,16aS, Z)-6-(2-((S)-3-(aminomethyl)pyrrolidin-1-yl)-2-oxoethyl)-N-(cyclopropylsulfonyl)-2-(7-methoxy-2-phenylquinolin-4-yloxy)-5,16-dioxo-1,2,3,5,6,7,8,9,10,11, 13a,14,14a,15,16,16a-hexadecahydrocyclopropa [e]pyrrolo[1,2-a][1,4] diazacyclopentadecine-14a-carboxamide] as the compound, how does the EC50 read?
A: < 1000 nM

Q: For `COc1ccc2c(O[C@@H]3C[C@H]4C(=O)N[C@]5(C(=O)NS(=O)(=O)C6CC6)C[C@H]5/C=C\CCCCC[C@H](CC(=O)N5CC[C@@H](N)C5)C(=O)N4C3)cc(-c3ccccc3)nc2c1` [Compound 106, (2R,6R,14aR,16aS, Z)-6-(2-((R)-3-aminopyrrolidin-1-yl)-2-oxoethyl)-N-(cyclopropylsulfonyl)-2-(7-methoxy-2-phenylquinolin-4-yloxy)-5,16-dioxo-1,2,3,5,6,7,8,9,10,11, 13a,14,14a,15,16,16a-hexadecahydrocyclopropa [e]pyrrolo[1,2-a][1,4] diazacyclopentadecine-14a-carboxamide], which EC50 is on record?
A: < 1000 nM

Q: `COc1ccc2c(O[C@@H]3C[C@H]4C(=O)N[C@]5(C(=O)NS(=O)(=O)C6CC6)C[C@H]5/C=C\CCCCC[C@H](CC(=O)N5CC[C@@H](C(C)(C)N)C5)C(=O)N4C3)cc(-c3ccccc3)nc2c1` [Compound 107, (2R,6R,14aR,16aS, Z)-6-(2-((R)-3-(2-aminopropan-2-yl)pyrrolidin-1-yl)-2-oxoethyl)-N-(cyclopropylsulfonyl)-2-(7-methoxy-2-phenylquinolin-4-yloxy)-5,16-dioxo-1,2,3,5,6,7,8,9,10,11, 13a,14,14a,15,16,16a-hexadecahydrocyclopropa [e]pyrrolo[1,2-a][1,4] diazacyclopentadecine-14a-carboxamide] was tested. Which EC50 did it give?
A: < 1000 nM

Q: For `COc1ccc2c(O[C@@H]3C[C@H]4C(=O)N[C@]5(C(=O)NS(=O)(=O)C6CC6)C[C@H]5/C=C\CCCCC[C@H](CC(=O)N5CC[C@H](O)C5)C(=O)N4C3)cc(-c3ccccc3)nc2c1` [Compound 108, (2R,6R,14aR,16aS,Z)-N-(cyclopropylsulfonyl)-6-(2-((S)-3-hydroxypyrrolidin-1-yl)-2-oxoethyl)-2-(7-methoxy-2-phenylquinolin-4-yloxy)-5,16-dioxo-1,2,3,5,6,7,8,9,10,11, 13a,14,14a,15,16,16a-hexadecahydrocyclopropa [e]pyrrolo[1,2-a][1,4] diazacyclopentadecine-14a-carboxamide], which EC50 is on record?
A: < 1000 nM

Q: How did the EC50 turn out when `COc1ccc2c(O[C@@H]3C[C@H]4C(=O)N[C@]5(C(=O)NS(=O)(=O)C6CC6)C[C@H]5/C=C\CCCCC[C@H](CC(=O)N[C@@H]5CCNC5)C(=O)N4C3)cc(-c3ccccc3)nc2c1` [Compound 109, (2R,6R,14aR,16aS,Z)-N-(cyclopropylsulfonyl)-2-(7-methoxy-2-phenylquinolin-4-yloxy)-5,16-dioxo-6-(2-oxo-2-((R)-pyrrolidin-3-ylamino)ethyl)-1,2,3,5,6,7,8,9,10,11, 13a,14,14a,15,16,16a-hexadecahydrocyclopropa [e]pyrrolo[1,2-a][1,4] diazacyclopentadecine-14a-carboxamide] was run?
A: < 1000 nM

— US8697641B2, “4-amino-4-oxobutanoyl peptide cyclic analogues, inhibitors of viral replication” (Achillion Pharmaceuticals, Inc., priority 2008, dated 2014)
